Test results from article PMC4245125, “Pharmacological and Behavioral Characterization of D-473, an Orally Active Triple Reuptake Inhibitor Targeting Dopamine, Serotonin and Norepinephrine Transporters” (PLoS ONE, 2014).
Where a name gives a salt, the structure may show the parent alone.

Assays:
[1] = test system: locomotor activity (horizontal activity); experiment: Locomotor activity in rats; type: in vivo; conditions: rat; 5 mg/kg i.p.; vs vehicle (P<0.001)
Experimental: Sprague Dawley Rats were tested at 25 mg/kg oral dose of D-473 to monitor changes in any locomotor activity in acrylic Auto-Track/Opto-Varimex-4 System (Columbus Instrument; Columbus, Ohio). The purpose was to evaluate locomotor activity of the same doses of drug that were used in the forced swim test. Rats were acclimated in the test chambers for 1 h prior to oral administration of D-473. Locomotor activity of the drug was measured for a total of two hour post administration of the drug which corresponded to the time of measurement in the forced swimming experiment. GBR 12909 was studied as a control drug known to stimulate and was administered i.p. as in published studies; vehicle was orally administered.

[2] = Plasma concentration after oral administration in rats; type: in vivo; conditions: rat, male Sprague-Dawley rats, 25 mg/kg PO
Experimental: Sample preparation: Following oral administration of 25 mg/kg of D-473 and D-142 in male Sprague Dawley rats, the blood samples were collected at different time points over a period of 8 h for analysis. Concentrations of D-473 and D-142 in plasma were quantitated using a set of calibration standards prepared in blank matrix that were processed in parallel. Plasma concentration evaluation was carried out by the CRO, Absorption System, PA. Additionally, brain uptake studies of D-473 were carried out at three different time points (2, 4 and 6 h) following oral administration of 25 mg/kg D-473. Concentrations of D-473 in rat brain were quantitated using a set of calibration standards which were prepared in blank brain homogenate matrix on the day of analysis. The standard samples (5, 10, 25, 100, 500, 1000, and 2000 ng/mL) for calibration curve were prepared by spiking 45 µL of blank rat plasma with 5 µL of appropriate working dilution of D-473 in acetonitrile. The bioanalytical sample preparation for brain and plasma analysis followed by quantification of test compounds entailed the addition of 250 µL acetonitrile to every 50 µL of standard and analyte samples to precipitate tissue plasma proteins and tissue macromolecules. These mixtures were then vortexed for 15 min at 1400 rpm. The suspensions were then clarified by centrifugation (18000 g, 10 min at 4°C), and each 150 µL of the resulting supernatant was mixed well with 50 µL 0.1% formic acid in 50/50 (v/v) ACN/water solution for about 10 sec. The mixtures were again centrifuged (18000 g, 10 min at 4°C) before 100 µL of clear supernatant were transferred to auto sampler vials for LC-MS/MS analysis.
The analysis of blood sample was carried out by the CRO Absorption system, PA. Briefly, the analysis was carried out by Waters Acquity UPLC equipped with PE Sciex API4000 mass spectrometer. Reverse phase Waters Acquity BEH Phenyl Column 1.7micron, 2.1×30 mm column was used for analysis. 5 µL of sample solutions were injected with a flow rate 1 mL/min and the samples were eluted with gradient elution using solvent A (10% buffer: 90% water) and solvent B (10% buffer: 90% acetonitrile). Buffer used was 40 mM Ammonium Formate Buffer, pH 3.5. Pharmacokinetic prarameters were estimated by a non-compartmental model using WinNonlin v5.2.1 software.

[3] = biological target: hDAT (Homo sapiens, UniProt Q01959); experiment: Inhibition of [3H]DA uptake by cloned human DAT in HEK293 cells; conditions: nM, HEK293 cells expressing hDAT, average±S.E.M., 3 to 10 determinations
Sequence of hDAT (Q01959 whole entry): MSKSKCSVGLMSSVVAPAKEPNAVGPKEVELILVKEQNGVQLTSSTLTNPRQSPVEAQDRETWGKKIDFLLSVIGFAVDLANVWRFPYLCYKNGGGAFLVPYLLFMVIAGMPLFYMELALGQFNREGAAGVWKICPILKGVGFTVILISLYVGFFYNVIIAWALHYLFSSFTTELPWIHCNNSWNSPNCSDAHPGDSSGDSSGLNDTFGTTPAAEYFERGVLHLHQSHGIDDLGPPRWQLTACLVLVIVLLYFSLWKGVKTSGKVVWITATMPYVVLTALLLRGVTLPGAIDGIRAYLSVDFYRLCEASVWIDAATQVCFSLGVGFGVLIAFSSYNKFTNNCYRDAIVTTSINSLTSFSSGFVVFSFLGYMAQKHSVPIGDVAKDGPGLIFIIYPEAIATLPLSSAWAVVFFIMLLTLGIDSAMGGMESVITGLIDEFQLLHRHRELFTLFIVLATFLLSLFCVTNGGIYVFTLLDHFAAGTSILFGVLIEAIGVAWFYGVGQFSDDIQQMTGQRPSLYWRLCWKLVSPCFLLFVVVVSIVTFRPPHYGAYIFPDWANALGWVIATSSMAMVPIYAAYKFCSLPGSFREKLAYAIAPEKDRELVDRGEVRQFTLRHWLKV

[4] = found earlier by the authors; no reference given; cited from earlier work
[5] = biological target: hSERT (Homo sapiens, UniProt P31645); experiment: Inhibition of [3H]5-HT uptake by cloned human SERT in HEK293 cells
Sequence of hSERT (P31645 whole entry): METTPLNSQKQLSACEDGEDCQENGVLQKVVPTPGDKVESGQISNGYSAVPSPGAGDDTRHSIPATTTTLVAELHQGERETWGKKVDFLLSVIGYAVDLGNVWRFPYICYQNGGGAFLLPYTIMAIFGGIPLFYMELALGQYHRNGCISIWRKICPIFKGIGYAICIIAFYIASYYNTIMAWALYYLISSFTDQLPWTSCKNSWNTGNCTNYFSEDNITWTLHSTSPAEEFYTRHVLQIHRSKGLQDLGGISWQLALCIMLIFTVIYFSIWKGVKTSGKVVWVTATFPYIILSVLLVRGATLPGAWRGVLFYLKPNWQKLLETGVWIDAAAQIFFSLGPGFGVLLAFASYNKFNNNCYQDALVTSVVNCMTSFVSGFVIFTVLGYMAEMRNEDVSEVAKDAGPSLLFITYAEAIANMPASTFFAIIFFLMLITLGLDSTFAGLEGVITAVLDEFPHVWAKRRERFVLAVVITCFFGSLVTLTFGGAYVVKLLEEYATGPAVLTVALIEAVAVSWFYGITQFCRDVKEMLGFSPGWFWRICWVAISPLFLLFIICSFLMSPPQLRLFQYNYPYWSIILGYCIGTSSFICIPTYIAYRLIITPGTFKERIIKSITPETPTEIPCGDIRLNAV

[6] = biological target: hNET (Homo sapiens, UniProt P23975); experiment: Inhibition of [3H]DA uptake by cloned human NET in HEK293 cells; conditions: NET uptake, Ki, nM [3H]DA, HEK293 cells expressing hNET; average±S.E.M., 3 to 10 determinations
Sequence of hNET (P23975 whole entry): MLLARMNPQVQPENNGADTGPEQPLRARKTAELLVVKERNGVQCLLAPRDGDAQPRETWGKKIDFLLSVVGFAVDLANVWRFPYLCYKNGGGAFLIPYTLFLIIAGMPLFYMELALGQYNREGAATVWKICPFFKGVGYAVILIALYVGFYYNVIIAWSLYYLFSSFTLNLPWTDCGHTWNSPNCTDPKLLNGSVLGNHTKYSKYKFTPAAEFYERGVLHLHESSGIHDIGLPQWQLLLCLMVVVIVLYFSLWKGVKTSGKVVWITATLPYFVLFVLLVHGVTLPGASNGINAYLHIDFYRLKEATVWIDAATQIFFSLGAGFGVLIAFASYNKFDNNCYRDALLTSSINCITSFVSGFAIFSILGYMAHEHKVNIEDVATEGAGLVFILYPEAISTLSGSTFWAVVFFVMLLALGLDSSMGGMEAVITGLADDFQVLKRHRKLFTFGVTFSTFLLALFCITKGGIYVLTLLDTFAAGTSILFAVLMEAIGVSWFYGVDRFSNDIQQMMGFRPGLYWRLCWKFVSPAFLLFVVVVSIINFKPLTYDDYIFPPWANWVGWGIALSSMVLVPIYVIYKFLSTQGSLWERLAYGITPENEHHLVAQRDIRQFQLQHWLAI

[7] = test system: dialysate DOPAC; design: method as in PMID 2477259; conditions: DAT releaser; cited from earlier work

COc1ccc(CN[C@@H]2CO[C@H](C(c3ccc(F)cc3)c3ccc(F)cc3)C[C@H]2O)cc1 (as salt: hydrochloride) [Compound D-473, (2S,4R,5R)-2-(bis(4-fluorophenyl)methyl)-5-((4-methoxybenzyl)amino)tetrahydro-2H-pyran-4-ol]
melting point: 190 to 205 °C

Fc1ccc(C(OCCN2CCN(CCCc3ccccc3)CC2)c2ccc(F)cc2)cc1 [GBR 12909, 1-[2-[bis(4-fluorophenyl)methoxy]ethyl]-4-[3-phenylpropyl]piperazine, reference compound]
Locomotor activity (horizontal activity) [1]: significant rise

COc1ccc(CN[C@@H]2CO[C@H](C(c3ccccc3)c3ccccc3)C[C@H]2O)cc1 [Compound D-142]
Cmax ([2]; 3% HPßCD in water, read-out: Average maximum plasma concentration, Cmax): 125 ± 36.6 ng/mL
half-life ([2]; read-out: Average half-life (converted)): 2.5 ± 0.96 h
Ki [3]: 179 ± 27 nM
Oral bioavailability [4]: poor oral bioavailability
Ki [5]: 5.43 ± 1.4 nM
Ki [6]: 21.2 ± 4.3 nM

CC(N)Cc1ccccc1 (stereo not drawn) [amphetamine]
Reductions in DOPAC [7]: ~65%
